Reference: patent publication US9140688B2, “Sperm staining and sorting methods” (INGURAN, LLC, priority 2011, dated 2015)

How the values were obtained:
[1] = solvent water; shorter-wavelength local maximum; cited from earlier work
[2] = tested on: membrane compromised bovine sperm stained with Hoechst 33342; assay: Dead quenching: dead gate intensity divided by live gate intensity, flow cytometry of stained bovine sperm; assay type: cell-based; conditions: for Dead Intensity (dead gate intensity divided by live gate intensity): Ex 5; for Intensity (dead gate): Hoechst 48 μM
Source text: FIG. 4 illustrates an example bivariate plot and univariate histogram of the parameters measured during sex selection by a FACS on a flow cytometer. […] Without a dead quenching dye, both populations of sperm would overlap to a large extent, with unpredictable variations in the dead sperm.
The entire ejaculate of sperm was suspended in first staining buffer, specifically a 7.4 pH TALP described in TABLE 1, to a concentration of 160×10^6 sperm per mL (determined on nucleocounter) and divided into three aliquots of about 20 mL into 50 mL Falcon tubes and pre-warmed for 10 minutes at 34° C. The DNA selective fluorescent dye, Hoechst 33342, was added and samples were held at 34° C. for 60 minutes. 3 different Hoechst 33342 Stain Levels were used=12 μL, 14 μL and 16 μL per 2 mL (effective concentrations of 48 μM, 56 μM, 64 μM).
Preparation of the second buffer including the dead quenching dye—A 2 L bag of TALP, described in TABLE 1, was adjusted to pH 5.60 using HCl and then sterile filtered. […] For each of the four dyes tested (R40—red food dye No. 40, Y5—yellow food dye No. 5, Y6—yellow food dye No. 6 and PR—phenol red), an appropriate number of milligrams of each powder was placed in a Erlenmeyer Flask and then an exact amount of TALP pH 5.60 was added to create a […] concentration of the dye. The result was a working TALP stock for each dye with a 100% (125 μM) relative amount of dye 50% relative (62.5 μM) and 20% relative (25 μM) solutions were made by dilution of 100% by TALP pH 5.60.
After this “bulk” staining for 60 minutes, 1 mL aliquots of stained sperm were combined with 1 mL aliquots of the second buffer including the dead quenching dyes. Samples sat for approximately 30 minutes at room temperature before being analyzed on a MoFlo SX (Beckman Coulter, USA) sperm sorting flow cytometer. Event rates were held as close to 13,000 as possible at the point of data acquisition.
The total number of individual treatments was 42 tubes, each containing 2 mL of stained sample. The alignment of the sorter was established using nuclei and confirmed with live sample from the 50% Red 40 series. Once good alignment was established, each tube was placed on the sorter long enough to establish a stabile dead gate population (about 30 seconds) and then a screenshot was taken and saved as a .jpeg image. This approach of rapidly documenting each sample is used to assure the most consistent alignment between all samples. Realignment of sorter will not cause differences in the intensities of live and dead gate populations but will cause differences in split quality.
FIG. 4 illustrates an example histogram. The ratio of dead gate intensity divided by live gate intensity is created by dividing the distance “A” by the distance “B” shown as a percentage. Lower values mean higher levels of quenching. The ratio of peak height divided by valley height is created by dividing the distance “C” by the distance “D”. A value of 1.00 means “no split” while higher values mean “better splits”. […]

[3] = tested on: X- and Y-chromosome bearing bovine sperm stained with Hoechst 33342; assay: Split quality: height of peak divided by height of valley (PV), flow cytometry of stained bovine sperm; assay type: cell-based; conditions: for Height of Peak/Height of Valley: Ex 5; for PV: Ex 6, resulting pH 6.70
sperm = conditions: background statement; cited from earlier work
[4] = dye 62.5 μM, Hoechst 12 μL/2 mL
[5] = dye 62.5 μM, Hoechst 14 μL/2 mL
[6] = dye 62.5 μM, Hoechst 16 μL/2 mL

In the case of `O=C([O-])C1=NN(c2ccc(S(=O)(=O)[O-])cc2)C(=O)/C1=N/Nc1ccc(S(=O)(=O)[O-])cc1.[Na+].[Na+].[Na+]` [Yellow 5, Trisodium (4E)-5-oxo-1-(4-sulfonatophenyl)-4-[(4-sulfonatophenyl)hydrazono]-3-pyrazolecarboxylate], the “Expected Absorption Maxima” value [1] is listed as 422 nm, the “Dead Intensity (dead gate intensity divided by live gate intensity)” value ([2]; dye 25 μM, Average of Hoechst levels) is listed as 90% and the “Dead Intensity (dead gate intensity divided by live gate intensity)” value ([2]; dye 25 μM, Hoechst 12 μL/2 mL) is listed as 90%. For the same molecule, the “Dead Intensity (dead gate intensity divided by live gate intensity)” value ([2]; dye 25 μM, Hoechst 14 μL/2 mL) was 90%, the “Dead Intensity (dead gate intensity divided by live gate intensity)” value ([2]; dye 25 μM, Hoechst 16 μL/2 mL) was 90% and the “Dead Intensity (dead gate intensity divided by live gate intensity)” value ([2]; dye 62.5 μM, Average of Hoechst levels) was 74%. For the same molecule, the “Dead Intensity (dead gate intensity divided by live gate intensity)” value [2, 4] was 74%, the “Dead Intensity (dead gate intensity divided by live gate intensity)” value [2, 5] was 77% and the “Dead Intensity (dead gate intensity divided by live gate intensity)” value [2, 6] was 70%. The “Dead Intensity (dead gate intensity divided by live gate intensity)” value ([2]; dye 125 μM, Average of Hoechst levels) was 57%, the “Dead Intensity (dead gate intensity divided by live gate intensity)” value ([2]; dye 125 μM, Hoechst 12 μL/2 mL) was 54% and the “Dead Intensity (dead gate intensity divided by live gate intensity)” value ([2]; dye 125 μM, Hoechst 14 μL/2 mL) was 63%. The “Dead Intensity (dead gate intensity divided by live gate intensity)” value ([2]; dye 125 μM, Hoechst 16 μL/2 mL) was 55%, the “amount of dye needed for a similar dead gate intensity ratio as red food dye No. 40 and yellow food dye No. 6” value ([2]; Ex 6) was “about five times as much” and the “Intensity (dead gate)” value ([2]; Ex 6, dye 125 μM, resulting pH 6.70) was 63%. For the same molecule, the “Intensity (dead gate)” value ([2]; Ex 6, dye 250 μM, resulting pH 6.70) was 48%, the “Intensity (dead gate)” value ([2]; Ex 6, dye 500 μM, resulting pH 6.70) was 43% and the “Intensity (dead gate)” value ([2]; Ex 6, dye 750 μM, resulting pH 6.70) was under 30%. For the same molecule, the “Intensity (dead gate)” value ([2]; Ex 6, dye 875 μM, resulting pH 6.70) was under 30%, the “Intensity (dead gate)” value ([2]; Ex 6, dye 1250 μM, second buffer pH 5.60 (resulting pH 6.70)) was under 30% and the “Height of Peak/Height of Valley” value ([3]; dye 25 μM, Average of 12 and 14 μL series) was 1.72. The “Height of Peak/Height of Valley” value ([3]; dye 25 μM, Hoechst 12 μL/2 mL) was 1.90, the “Height of Peak/Height of Valley” value ([3]; dye 25 μM, Hoechst 14 μL/2 mL) was 1.54 and the “Height of Peak/Height of Valley” value ([3]; dye 25 μM, Hoechst 16 μL/2 mL) was 1.00. For the same molecule, the “Height of Peak/Height of Valley” value ([3]; dye 62.5 μM, Average of 12 and 14 μL series) was 1.65, the “Height of Peak/Height of Valley” value [3, 4] was 1.60 and the “Height of Peak/Height of Valley” value [3, 5] was 1.70. For the same molecule, the “Height of Peak/Height of Valley” value [3, 6] was 1.00, the “Height of Peak/Height of Valley” value ([3]; dye 125 μM, Average of 12 and 14 μL series) was 1.82 and the “Height of Peak/Height of Valley” value ([3]; dye 125 μM, Hoechst 12 μL/2 mL) was 1.72. For the same molecule, the “Height of Peak/Height of Valley” value ([3]; dye 125 μM, Hoechst 14 μL/2 mL) was 1.92, the “Height of Peak/Height of Valley” value ([3]; dye 125 μM, Hoechst 16 μL/2 mL) was 1.03 and the PV ([3]; dye 125 μM, Hoechst 48 μM) was 1.00. The PV ([3]; dye 250 μM, Hoechst 48 μM) was 1.00, the PV ([3]; dye 500 μM, Hoechst 48 μM) was 1.00 and the PV ([3]; dye 750 μM, Hoechst 48 μM) was 1.00. The PV ([3]; dye 875 μM, Hoechst 48 μM) was 1.00 and the PV ([3]; dye 1250 μM, Hoechst 48 μM (understained)) was 1.00.
In the case of `CC[N+](C)(CC)CCC[n+]1c(-c2ccccc2)c2cc(N)ccc2c2ccc(N)cc21.[I-].[I-]` [propidium iodine], the toxicity to sperm (sperm) is given as “toxic to sperm”.
